Where a name gives a salt, the structure may show the parent alone. Read-outs that look alike come from different tables or passages of the source.
Assays:
[1] = test system: Bacillus E; assay: Antimicrobial spectrum, plate assay; assay type: cell-based
Experimental: (§1) The following table summarizes the antimicrobial spectrum of antibiotic X-537A:
(§2) Antimicrobial spectrum of antibiotic X-537A
(§3) Test organism: Plate units per mg.
(§4) The antibiotic can be prepared by growing the Streptomyces organisms in an aerated submerged culture. This can be done in either a shaken flask or in 50-1,000 gallon stainless steel and iron fermentation tanks. The broths are adjusted to a pH which is about neutral, i.e., 6.5-7.5 prior to be sterilized and are then incubated at slightly elevated temperatures, e.g., about 27° to 30° C., after being inoculated with spore suspensions or vegetative growth. The reaction broth is then filtered and the active material is extracted with a suitable solvent, preferably methanol, n-butanol or butyl acetate. The antibiotic activity is followed by cup-plate agar diffusion assay in which the test organism Bacillus E is employed. In general, the concentration of antibiotic required to produce an inhibition zone of 20-22 mm. in diameter with any of the test organisms is considered to be 1 unit per ml. Whole broths are diluted for assay in 1% phosphate buffer, pH 6.0.

[2] = test system: Bacillus cereus; assay: Antimicrobial spectrum, plate assay; assay type: cell-based
Experimental: as §1, §2, §3, §4

[3] = test system: Bacillus mesentericus; assay: Antimicrobial spectrum, plate assay; assay type: cell-based
Experimental: as §1, §2, §3, §4

[4] = test system: Bacillus simplex; assay: Antimicrobial spectrum, plate assay; assay type: cell-based
Experimental: as §1, §2, §3, §4

[5] = test system: Corynebacterium simplex; assay: Antimicrobial spectrum, plate assay; assay type: cell-based
Experimental: as §1, §2, §3, §4

[6] = test system: Mycobacterium phlei; assay: Antimicrobial spectrum, plate assay; assay type: cell-based
Experimental: as §1, §2, §3, §4

[7] = test system: Saccharomyces cerevisiac; assay: Antimicrobial spectrum, plate assay; assay type: cell-based
Experimental: as §1, §2, §3, §4

[8] = test system: Sarcina lutea; assay: Antimicrobial spectrum, plate assay; assay type: cell-based
Experimental: as §1, §2, §3, §4

[9] = test system: Scopulariopsis brevicaulis; assay: Antimicrobial spectrum, plate assay; assay type: cell-based
Experimental: as §1, §2, §3, §4

[10] = test system: Staphylococcus aureus; assay: Antimicrobial spectrum, plate assay; assay type: cell-based
Experimental: as §1, §2, §3, §4

[11] = test system: Gram-negatives; assay: Antimicrobial spectrum, plate assay; assay type: cell-based; conditions: Gram-negatives: Pseudomonas acruginosa, Aerobacillus polymyxa, Escherichia coli
Excerpt: as §1, §2, §3
*These were Pseudomonas acruginosa, Aerobacillus polymyxa and Escherichia
as §4

[12] = test system: gram-positive bacteria; assay: In vitro antibacterial activity; assay type: cell-based
[13] = test system: mycobacteria; assay: In vitro antibacterial activity; assay type: cell-based
[14] = test system: gram-negative bacteria; assay: In vitro antibacterial activity; assay type: cell-based
[15] = Toxic dosage in mice; assay type: in vivo; conditions: for MTD: mouse, in vivo, read-out: Tolerated dose
Excerpt: The toxic dosage of the antibiotic as tested in mice and designated as the lethal dose is as follows: […]

[16] = Continuous feeding of chicks for nine weeks; assay type: in vivo, chicken
Excerpt: At 0.025%, growth is reduced, feed conversion impaired and 25% mortality occurs.

[17] = test system: Eimeria tenella; assay: Eimeria tenella infection in laboratory chickens; assay type: in vivo; parameters: Average degree of infection: scale not given here; conditions: for Weight gain: uninfected control 100
Experimental: (A) Eimeria tanella infection in laboratory chickens
(§5) Test method.--This test utilizes ten chickens per drug group. Ten chickens are employed as a weight control and ten chickens as an infected control. The drug is given 48 hours in advance of the infection. One gm. of the test drug is mixed in a mechanical mixer with a sufficient amount of chicken feed to result in the desired dosage. The infection consists of approximately 200,000 oocysts given orally by pipette. The tests lasts for eleven days and then the surviving birds are autopsied and examined for gross lesions in the ceca. The test birds are rated according to the number of survivors and the number of cecal lesions. The results are expressed as average degree of infection (A.D.I.). An average degree of infection of less than 2.5 is considered significant.

[18] = test system: mixtures of E. tenella, E. necatrix, E. acervulina, E. brunetti, E. maxima, E. mivati; assay: Multiple Eimeria infections in chickens; assay type: in vivo, Eimeria (mixture; in chickens); conditions: for Average degree of infection: <2.5 significant; for Weight gain: uninfected control 100
Experimental: as §5
(B) Multiple Eimeria infections in chickens
Test method.--The test method is the same as for Eimeria tenella. The multiple Eimeria infections tested herein are mixtures of E. tenella, E. necatrix, E. acervulina, E. brunetti, E. maxima, E. mivati infections.

[19] = test system: coccidiosis; assay: Control of coccidiosis by medicated feed (general statements); assay type: in vivo, poultry (turkeys, chickens)
Excerpt: Thus, the compositions of this invention not only control coccidiosis, but also, aid in improving the efficiency of conversion of feed to weight gains.
Thus, for example, a feed premix or complete feed contains sufficient active ingredient to provide from about 0.001% to about 0.0125% by weight of the daily feed consumption. Preferably, about 0.00312% to 0.00625% by weight is used. Generally, about 0.005% to about 0.006% of the active ingredient is sufficient for the purpose of controlling and combating coccidiosis.
Even though amounts over 0.00625% are efficacious for combating coccidiosis, this amount is the preferred upper range because of economics, i.e., the cost per unit of effectiveness is lowest within this range. Amounts lower than 0.001% and in some cases lower than 0.003% are not effective for combating coccidiosis. Preferred is a lower limit of 0.00312% because this insures efficaciousness. The most preferred amount, i.e., about 0.005% to about 0.006% by weight of the poultry daily feed consumption is particularly efficacious since it achieves maximum effect with minimum dose. The range of the weight amounts of active antibiotic in the dried unfiltered broth solids which are efficacious for combating coccidiosis is the same as for the crystalline material or its salts. For example, when administered in feed to chicks so as to contain a dosage of 0.003% of active ingredient, the crude dried unfiltered broth results in an average degree of infection of 1.4 while at the same dosage, the sodium salt of the crystalline antibiotic results in an average degree of infection of 1.7. At a dosage equivalent to a concentration of active ingredient of 0.006%, the dried material results in an average degree of infection of 0.0 while the sodium salt of the crystalline antibiotic results in an average degree of infection of 0.2.

[20] = Acute oral toxicity in broiler chicks; conditions: chicken, in vivo; oral single dose, 9- or 8-day-old chicks; limits given as 59 ±3 mg. and 84 ±7 mg.

CCC(C(=O)C(C)C(O)C(C)CCc1ccc(C)c(O)c1C(=O)O)C1OC(CC)(C2CCC(O)(CC)C(C)O2)CC1C (centres unmarked) [antibiotic X-537A]
Antimicrobial activity ([1]; Bacillus E): 800 Plate units per mg.
Bacillus E assay ([1]; crystalline material from petroleum ether (contained sodium)): 500 E units per mg.
Bacillus E assay ([1]; free acid recrystallized from ethanol): 800 E units per mg.
Antimicrobial activity [2]: 120 Plate units per mg.
Antimicrobial activity [3]: 50 Plate units per mg.
Antimicrobial activity [4]: 20 Plate units per mg.
Antimicrobial activity [5]: 20 Plate units per mg.
Antimicrobial activity [6]: 20 Plate units per mg.
Antimicrobial activity [7]: 0 Plate units per mg.
Antimicrobial activity [8]: 500 Plate units per mg.
Antimicrobial activity [9]: 0 Plate units per mg.
Antimicrobial activity [10]: 20 Plate units per mg.
Antimicrobial activity [11]: 0 Plate units per mg.
Activity in vitro against gram-positive bacteria [12]: active
Activity in vitro against mycobacteria [13]: active
Activity in vitro against gram-negative bacteria [14]: inactive
Lethal dose ([15]; intraperitoneal): 62.5 mg/kg
MTD ([15]; ip, intraperitoneal): 50 mg/kg
MTD ([15]; oral): 62.5 mg/kg
MTD ([15]; sc, subcutaneous): 62.5 mg/kg
Lethal dose ([15]; oral): 125 mg/kg
Lethal dose ([15]; subcutaneous): 125 mg/kg
Feed conversion ([16]; 0.025% in feed): impaired
Growth ([16]; 0.025% in feed): reduced
mortality at 1512 h ([16]; chicken, in vivo, po, 0.025% in feed): 25%
Adverse effects on performance (growth, feed efficiency and mortality) ([16]; up to 0.0125% by weight in feed, nine weeks): no adverse effects
Percent mortality ([17]; Test I, 0.00312% in feed): 0%
Average degree of infection ([17]; Test I, 0.00312% in feed, <2.5 significant): 2.2
Weight gain ([17]; Test I, 0.00312% in feed): 85%
Percent mortality ([17]; Test I, 0.00625% in feed): 0%
Average degree of infection ([17]; Test I, 0.00625% in feed, <2.5 significant): 0.4
Weight gain ([17]; Test I, 0.00625% in feed): 92%
Percent mortality ([17]; Test II, 0.001% in feed): 15%
Average degree of infection ([17]; Test II, 0.001% in feed, <2.5 significant): 2.8
Weight gain ([17]; Test II, 0.001% in feed): 80%
Percent mortality ([17]; Test II, 0.002% in feed): 15%
Average degree of infection ([17]; Test II, 0.002% in feed, <2.5 significant): 2.6
Weight gain ([17]; Test II, 0.002% in feed): 83%
Percent mortality ([17]; Test II, 0.003% in feed): 5%
Average degree of infection ([17]; Test II, 0.003% in feed, <2.5 significant): 2.2
Weight gain ([17]; Test II, 0.003% in feed): 85%
Percent mortality ([17]; Test II, 0.004% in feed): 15%
Average degree of infection ([17]; Test II, 0.004% in feed, <2.5 significant): 1.7
Weight gain ([17]; Test II, 0.004% in feed): 87%
Percent mortality ([17]; Test II, 0.005% in feed): 5%
Average degree of infection ([17]; Test II, 0.005% in feed, <2.5 significant): 0.8
Weight gain ([17]; Test II, 0.005% in feed): 94%
Percent mortality ([17]; Test II, 0.006% in feed): 0%
Average degree of infection ([17]; Test II, 0.006% in feed, <2.5 significant): 0.1
Weight gain ([17]; Test II, 0.006% in feed): 95%
Average degree of infection ([17]; Test III, 0.003% in feed, <2.5 significant): 1.7
Weight gain ([17]; Test III, 0.003% in feed): 79%
Average degree of infection ([17]; Test III, 0.004% in feed, <2.5 significant): 1.1
Weight gain ([17]; Test III, 0.004% in feed): 81%
Average degree of infection ([17]; Test III, 0.005% in feed, <2.5 significant): 0.5
Weight gain ([17]; Test III, 0.005% in feed): 98%
Average degree of infection ([17]; Test III, 0.006% in feed, <2.5 significant): 0.2
Weight gain ([17]; Test III, 0.006% in feed): 97%
Effectiveness in treatment of coccidiosis ([17]; at the preferred dosages illustrated): effective
Effect on conversion of feed to weight gain ([17]; used as a coccidiostat): does not substantially adversely affect
Percent mortality ([18]; 0.00312% in feed): 0%
Average degree of infection ([18]; 0.00312% in feed): 0.9
Weight gain ([18]; 0.00312% in feed): 105%
Percent mortality ([18]; 0.00625% in feed): 0%
Average degree of infection ([18]; 0.00625% in feed): 0.0
Weight gain ([18]; 0.00625% in feed): 108%
Efficiency of conversion of feed to weight gain ([18]; chickens): greater than expected
Effectiveness in treating multiple coccidiosis infections ([18]; in vivo): effective
Effectiveness against coccidiosis ([19]; amounts greater than 0.0125% of feed): effective against coccidiosis, do not generally show improved results over 0.0125%
Effect on growth, feed efficiency and mortality ([19]; amounts greater than 0.0125% of feed, in some cases): may adversely affect the growth, feed efficiency and mortality
Effectiveness against coccidiosis ([19]; amounts lower than 0.001% and in some cases lower than 0.003% of feed): not effective
Toxicity / untoward side effects ([19]; at dosages necessary to control coccidiosis): not toxic and shows no untoward side effects
Weight of treated fowl compared to controls ([19]; oral, as component of feed): either maintain their weight or actually gain weight
Control of coccidiosis ([19]; oral, as component of feed, turkeys and chickens): effectively controls the disease

CCC(C(=O)C(C)C(O)C(C)CCc1ccc(C)c(O)c1C(=O)O)C1OC(CC)(C2CCC(O)(CC)C(C)O2)CC1C (centres unmarked) [sodium salt of antibiotic X-537A]
LD50 [20]: 59 to 84 mg/kg
Average degree of infection ([17]; text: 0.003% of active ingredient in feed to chicks): 1.7
Average degree of infection ([17]; text: 0.006% of active ingredient in feed to chicks): 0.2

From patent publication USRE29244E, “Coccidiostats” (priority 1976, dated 1977)
